Results as given in patent US20230105212A1, “BIPHENYL DERIVATIVE INHIBITOR, PREPARATION METHOD THEREFOR AND USE THEREOF” (SHANGHAI HANSOH BIOMEDICAL CO., LTD., priority 2020, published 2023).

Molecular target: T1, hERG potassium channel (Homo sapiens, UniProt Q12809)
T1 construct: expressed in transfected cells; host or cells: CHO-hERG cells
Assay: Inhibitory activity test of hERG potassium channel (Qpatch, CHO-hERG cells)
Assay type: cell-based
Details: 6 concentrations up to 40 μM
Protocol: Test Embodiment 9. Inhibitory Activity Test of hERG Potassium Channel
1.1 CHO-hERG cells were cultured in a 175 cm^2 culture flask. When the cell density reached 60 to 80%, the culture medium was removed, washed with 7 mL of PBS, and then digested with 3 mL of Detachin.
1.2 After the digestion was completed, 7 mL of culture medium was added to neutralize, then centrifuged, and the supernatant was aspirated, and 5 mL of culture medium was added to resuspend to ensure the cell density was 2 to 5×10^6/mL.
Single-cell high-impedance sealing and whole-cell pattern formation were all performed automatically by the Qpatch instrument. After the whole-cell recording pattern was obtained, the cell was clamped at −80 mV, before a +40 mV depolarizing stimulus for 5 s was given, a pre-voltage of −50 mV for 50 ms was given, then repolarized to −50 mV for 5 s, and then returned to −80 mV. This voltage stimulus was applied every 15 seconds, and recorded for 2 minutes, then the extracellular solution was given and then recorded for 5 minutes. Then the dosing process was started. The compound concentration started from the lowest test concentration, and each test concentration was administered for 2.5 minutes. After all concentrations were continuously administered, the positive control compound 3 μM Cisapride was administered. […]
The experimental data was analyzed by XLFit software.

T1 sequence (Q12809 whole entry): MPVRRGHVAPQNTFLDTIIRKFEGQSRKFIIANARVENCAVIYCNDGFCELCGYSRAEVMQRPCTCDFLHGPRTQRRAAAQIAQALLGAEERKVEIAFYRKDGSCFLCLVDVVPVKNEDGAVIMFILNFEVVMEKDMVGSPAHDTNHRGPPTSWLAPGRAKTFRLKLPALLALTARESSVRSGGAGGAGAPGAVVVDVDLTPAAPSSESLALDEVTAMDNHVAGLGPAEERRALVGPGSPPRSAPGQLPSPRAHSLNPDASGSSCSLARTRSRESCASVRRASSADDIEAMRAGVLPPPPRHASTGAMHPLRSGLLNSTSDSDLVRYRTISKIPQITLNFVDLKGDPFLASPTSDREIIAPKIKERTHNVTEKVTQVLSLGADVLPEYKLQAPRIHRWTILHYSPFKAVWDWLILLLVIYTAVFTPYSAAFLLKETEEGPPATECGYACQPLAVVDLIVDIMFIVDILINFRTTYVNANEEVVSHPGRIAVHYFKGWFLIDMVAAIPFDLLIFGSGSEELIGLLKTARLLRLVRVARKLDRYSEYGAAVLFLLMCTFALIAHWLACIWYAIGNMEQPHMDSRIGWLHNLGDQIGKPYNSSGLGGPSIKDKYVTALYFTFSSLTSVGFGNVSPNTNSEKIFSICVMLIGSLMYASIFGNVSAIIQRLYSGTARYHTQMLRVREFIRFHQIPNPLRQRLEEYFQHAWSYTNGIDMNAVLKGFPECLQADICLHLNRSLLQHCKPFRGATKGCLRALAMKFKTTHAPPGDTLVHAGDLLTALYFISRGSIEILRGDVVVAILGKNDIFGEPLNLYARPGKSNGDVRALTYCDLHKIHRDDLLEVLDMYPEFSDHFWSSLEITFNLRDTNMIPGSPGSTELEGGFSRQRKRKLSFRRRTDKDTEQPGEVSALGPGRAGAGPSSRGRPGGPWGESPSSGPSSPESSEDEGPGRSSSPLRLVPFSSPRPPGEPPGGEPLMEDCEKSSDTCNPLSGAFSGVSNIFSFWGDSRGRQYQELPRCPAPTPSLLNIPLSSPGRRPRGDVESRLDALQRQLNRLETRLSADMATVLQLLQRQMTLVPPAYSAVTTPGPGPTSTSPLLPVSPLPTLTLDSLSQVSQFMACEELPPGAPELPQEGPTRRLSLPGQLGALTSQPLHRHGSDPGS

## COc1nc(-c2cccc(-c3cccc(NC(=O)c4nc5c(n4C)CCN(C)C5)c3Cl)c2Cl)ncc1CN1CC(CO)C1 [Embodiment 223, N-(2,2′-Dichloro-3′-(5-((3-(hydroxymethyl)azetidin-1-yl)methyl)-4-methoxypyrimidin-2-yl)-[1,1′-biphenyl]-3-yl)-1,5-dimethyl-4,5,6,7-tetrahydro-1H-imidazo[4,5-c]pyridine-2-carboxamide]
  IC50: 14.8 µM
